Experimental data reported in patent publication US11135188B2, “Method and composition to improve absorption of therapeutic agents” (Bayer HealthCare LLC, priority 2009, dated 2021).

Assay: Compatibility: degradation products of aspirin/carbonate blends by HPLC
Format: physicochemical
Description: The degradation products of various combinations of aspirin and various carbonates were determined for different combinations of aspirin and different grades and sources of carbonates to evaluate the compatibility and stability. Milling for about fifteen minutes appeared to slightly induce the production of free salicylic acid (FSA), but not to a significant extent. […] The results are shown in Table 3 (all blend percentages are weight percentages obtained using High Performance Liquid Chromatography (HPLC))

In the case of CC(=O)Oc1ccccc1C(=O)O [100% Aspirin-Milled 15 min, Aspirin], the “Acetyl Salicylic Salicylic Acid ASSA” value is reported as 0.00% and the “FSA (free salicylic acid)” value is reported as 0.00%.
